Measured values taken from patent US12398124B2, “Pyrrolobenzodiazepine dimer prodrug and ligand-linker conjugate compound of the same” (priority 2017, dated 2025).
Like-named read-outs stand apart in the source and are kept apart here. Where a SMILES comes first, the peptide text is derived from it. [ ]: non-standard residue; d: D form. Dolaproine = CO[C@@H]([C@@H]1CCCN1)[C@@H](C)C(=O)O; Dil = CC[C@H](C)[C@H](NC)[C@@H](CC(=O)O)OC; NMeV = CN[C@H](C(=O)O)C(C)C

Assays:
Test in all cases: Cytotoxicity in vitro (cell proliferation inhibition, SRB dye)
Assay type in all cases: cell-based, human
[1] = system: MCF-7 (HER2 negative to normal); details: MCF7 breast cancer cells
Description: (§1) The cell proliferation inhibitory activity of the drug and ADCs presented in the following Table 2 on cancer cell lines was measured. As the cancer cell lines, commercially available human breast cancer cell lines MCF-7 (HER2 negative to normal), SK-BR3 (HER2 positive), and JIMT-1 (HER2 positive) were used. MMAF-OMe was used as the drug and the ADCs in Table 1 were used as the ADC. Each of the cancer cell lines was seeded in a 96-well plate by from 5,000 to 13,000 per well for the 72 hour treatment group and from 1,500 to 3,000 per well for the 168 hour treatment group, incubated for 24 hours, and then treated with antibodies and ADCs at a concentration of from 0.0051 to 33.33 nM or from 0.0015 to 10.0 nM (three times serial dilutions) and drugs at a concentration of from 0.023 to 50 nM (three times serial dilutions). After 72/168 hours, the number of living cells was quantified using SRB (Sulforhodamine B) dye.

SK-BR3 (HER2 positive) = details: SK-BR3 breast cancer cells
Description: as §1

JIMT-1 (HER2 positive) = details: JIMT-1 breast cancer cells
Description: as §1

SMILES: CC[C@H](C)[C@@H]([C@@H](CC(=O)N1CCC[C@H]1[C@H](OC)[C@@H](C)C(=O)N[C@@H](Cc1ccccc1)C(=O)OC)OC)N(C)C(=O)[C@@H](NC(=O)[C@@H](NC)C(C)C)C(C)C [MMAF-OMe] (H-[NMeV]V[Dil][Dolaproine]F-OMe)
- CC50 ([1]; 72 hr treatment, read-out: CC50 (nM) MCF7 72 hr): 0.84 nM
- CC50 ([1]; 168 hr treatment, read-out: CC50 (nM) MCF7 168 hr): 0.19 nM
- CC50 (SK-BR3 (HER2 positive); 72 hr treatment, read-out: CC50 (nM) SK-BR3 72 hr): 0.14 nM
- CC50 (SK-BR3 (HER2 positive); 168 hr treatment, read-out: CC50 (nM) SK-BR3 168 hr): 0.06 nM
- CC50 (JIMT-1 (HER2 positive); 72 hr treatment, read-out: CC50 (nM) JIMT-1 72 hr): 0.14 nM
- CC50 (JIMT-1 (HER2 positive); 168 hr treatment, read-out: CC50 (nM) JIMT-1 168 hr): 0.06 nM
